Target: IDO enzyme (Homo sapiens (Human), UniProt P14902)
Test: IDO enzyme inhibitory activity
Type: biochemical
Details: OD321 nm, 60 min
Protocol: Firstly, the IDO gene was amplified by PCR, the PCR amplification products were recovered, and then the pET28a plasmid (purchased from Shanghai Baoman Biotechnology Co., Ltd.) and the IDO gel recovery products were digested with EcoR I and Xho I restriction endonucleases (37° C., digestion for 2 h), electrophorized and recovered. The recovered products were ligated overnight by a T4 ligase and then the ligation products were added to DH5α competent cells, placed on ice for 30 min, heat-shocked at 42° C. for 90 s, cultured on a shaker, and seeded to a plate. Monoclonies were picked, identified by PCR and then by sequencing.
The constructed BL21 containing the pET28a-IDO plasmid was cultured at 37° C. to OD600=0.6-0.8, and a final concentration of 7 μM of chlorine methemoglobin and 1 mM of IPTG (isopropyl-β-D-thiogalactoside) were added for induction at 28° C. for 4 h; after the induction, the cell was centrifuged at 6000 rpm at 4° C., the collected cells were washed once with 20 mM PBS (pH6.5), and centrifuged and collected again.
The collected cells were resuspended with a lysis solution (20 mM PBS pH 6.5), ultrasonically lysed (40% of power, lysis for 20 min, placed on ice), the lysed bacteria were centrifuged at 13000 rpm for 15 min, precipitate was discarded and the supernatant was maintained; the nickel column was equilibrated with the lysis solution (20 mM PBS pH 6.5) for 3 column volumes, and then the lysis supernatant was loaded onto the nickel column; after loading, four column volumes of a rinsing solution (20 mM PBS pH 6.5, 20 mM imidazole) were used for washing, and finally protein was eluted with eluent (20 mM PBS pH 6.5, 250 mM imidazole); the eluted protein solution was dialyzed for 4 h, and the dialysis solution was 20 mM PBS, pH 6.5. After the dialysis, the protein sample was concentrated, packed, flash frozen by liquid nitrogen, and stored at −80° C. for further use.
Firstly, the compound was subject to a 3-fold gradient dilution. 1 μL of each concentration was added to a 96-well plate; 50 μL of the IDO enzyme solution (final concentration 600 ng/100μL) was added: 25 μL of substrate 1 mixture solution was added, 25 μL of substrate 2 mixture solution was added to initiate the reaction. Finally, the plate was read at OD321 nm, 60 min.

IDO enzyme, sequence (P14902 whole entry): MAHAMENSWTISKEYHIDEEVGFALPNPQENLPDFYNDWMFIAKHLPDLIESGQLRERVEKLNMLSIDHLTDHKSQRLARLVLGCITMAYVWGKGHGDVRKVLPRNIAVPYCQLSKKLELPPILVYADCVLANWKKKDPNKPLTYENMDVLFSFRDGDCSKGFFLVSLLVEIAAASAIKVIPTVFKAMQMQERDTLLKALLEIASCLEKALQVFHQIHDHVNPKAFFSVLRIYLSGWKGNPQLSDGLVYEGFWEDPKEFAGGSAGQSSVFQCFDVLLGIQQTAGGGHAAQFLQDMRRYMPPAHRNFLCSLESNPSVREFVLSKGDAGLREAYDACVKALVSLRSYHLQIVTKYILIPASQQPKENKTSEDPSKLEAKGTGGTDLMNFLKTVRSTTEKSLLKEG

**Q.** With `CS(=O)(CCNc1nonc1/C(=N/O)Nc1ccc(F)c(Br)c1)=NC#N` (racemic) [compound 6, (±)(Z)—N-(3-bromo-4-fluorophenyl)-N′-hydroxy-4-((2-(thio-methylsulfoxidecyanoimine)ethyl)amino)-1,2,5-oxadiazole-3-carboxamidine] as the molecule, how does the IC50 read?
**A.** 11 nM

Source: patent US11053207B2, “Indoleamine-2,3-dioxygenase inhibitor and preparation method therefor” (SHANGHAI INSTITUTE OF ORGANIC CHEMISTRY, CHINESE ACADEMY OF …, priority 2014, dated 2021)
